Reference: US20150184144A1, “Liquid Enzyme Composition and Method for Enzyme Recovery” (Novozymes A/S, priority 2012, published 2015)

System: Lactobacillus (L. buchneri and L. para paracasei)
Test: Challenge screening of liquid enzyme formulations inoculated with Lactobacillus, viable cells (CFU)
Assay type: cell-based
Conditions: for CFU/ml After 1 week / CFU/ml After 2 weeks: 20-25° C.
Description: The antimicrobial effect may be determined by analyzing viable cells (CFU) of the liquid formulation after inoculating with Lactobacillus and incubating for 1-2 weeks at 20-25° C. and comparing with a similar liquid composition without the fatty acid or salt.
Challenge screening was performed by inoculating with 10^5-10^6 CFU/ml of Lactobacillus (L. buchneri and L. para paracasei), incubating for two weeks at 20-25° C., and analyzing viable cells (CFU) before and after inoculation and after 1 and 2 weeks.
The results are shown as CFU/ml (detection limit 100): […]

[1] = Example 5: 0.3% w/w inhibitor in glucoamylase formulation, pH 4.7
[2] = Example 5: glucoamylase (mixture of two variants) formulation, 48% w/w solids, pH 4.7, 0.3% w/w Na-octanoate or sodium benzoate instead, with or without 0.3% Na acetate trihydrate
[3] = Example 5: glucoamylase formulation, pH 4.7, 0.3% w/w Na-octanoate or sodium benzoate instead, with or without 0.3% Na acetate trihydrate
[4] = Example 1: Talaromyces glucoamylase formulation, 0.5% w/w Na-hexanoate, pH 5.0, detection limit 100

SMILES	antimicrobial effect against Lactobacillus (in words) [1]	CFU/ml Before inoculation [2]	CFU/ml After inoculation [3] [CFU/ml]	CFU/ml After 1 week [3]	CFU/ml After 2 weeks [3]	antimicrobial effect against Lactobacillus (in words) (Example 1: 0.5% w/w Na-hexanoate in glucoamylase formulation, pH 5.0)	CFU/ml After 1 week [4]	CFU/ml After 2 weeks [4]	CFU/ml After inoculation (Example 1: Talaromyces glucoamylase formulation, 0.5% w/w Na-hexanoate, pH 5.0, inoculated with 10^5-10^6 CFU/ml) [CFU/ml]	CFU/ml Before inoculation (Example 1: Talaromyces glucoamylase formulation, 43% w/w solids (glucose), 0.5% w/w Na-hexanoate, pH 5.0, detection limit 100)	antimicrobial effect against Lactobacillus (in words) (Example 2: 0.5% w/w Na-hexanoate in xylanase and cellulase formulation, pH 4.6)	antimicrobial effect against Lactobacillus (in words) (Example 3: 0.5% w/w Na-hexanoate in cellulase and xylanase formulation, pH 4.55)	antimicrobial effect against Lactobacillus (in words) (Example 4: 0.5% w/w Na-octanoate in glucoamylase formulation, pH 5.0, compared with formate+sorbate+propionate)
O=C([O-])c1ccccc1.[Na+] [Benzoate, sodium benzoate, reference compound]	not effective	≦100 CFU/ml	170000	150000 CFU/ml	120000 CFU/ml								
CCCCCC(=O)[O-].[Na+] [Na-hexanoate]						antimicrobial (germicidal) effect	≦100 CFU/ml	≦100 CFU/ml	180000	≦100 CFU/ml	antimicrobial (germicidal) effect	antimicrobial (germicidal) effect	
CCCCCCCC(=O)[O-].[Na+] [Octanoate, Na-Caprylate (Na-octanoate)]	strong antimicrobial (germicidal) effect	≦100 CFU/ml	170000	≦100 CFU/ml	≦100 CFU/ml								strong antimicrobial (germicidal) effect
CC(=O)[O-].O.O.O.[Na+] [acetate, Na acetate trihydrate, reference compound]	not effective												
